According to US20230101743A1, “SUBSTITUTED TRIAZINE COMPOUNDS AND USES THEREOF” (MUSC FOUNDATION FOR RESEARCH DEVELOPMENT, priority 2020, published 2023):

Legend:
[1] = Solubilities in water and 1 x PBS buffer (UV-vis); assay type: physicochemical; details: for Solubility in 1.0 ml PBS buffer: 1 × PBS buffer; for Solubility in 1.0 ml PBS buffer / Solubility in 1.0 ml water: 25° C.; for solubility comparison: both water or 1 x PBS buffer
Procedure: The molar extinction co-efficients of exemplary cholesterol lowering compounds were measured in 1 x PBS buffer. The compounds were first dissolved in dimethyl sulfoxide. Solutions with a 0.5 mg/ml concentration were then prepared in DMSO. These solutions were diluted further with 1 x PBS by 100-fold, resulting in solutions with a 5 ug/ml concentration. The resulted diluted solutions were then measured and scanned using a UV-vis spectrophotometer for ultra-violet absorbances between 240 nm to 400 nm, using a UV 96-well microplate. The maximum UV absorbances and corresponding wavelengths were recorded (Table 1). The absorbance values were subtracted by that of a blank, 1 x PBS buffer containing […]. The volume of the solutions for UV measurements was 300 ul and the depth of the solutions was 0.7 cm. The molar extinction co-efficients were then calculated based on formula
The solubilities of the exemplary cholesterol lowering compounds were measured in water and 1 x PBS buffer. The compounds were first stirred with water and 1 x PBS buffer individually at room temperature for 1 h. The suspensions were then centrifuged for 2 min. The top clear solutions were filtered through filter paper, resulting in mother liquids, which were centrifuged again and diluted with 1 x PBS buffer for 10-fold for the solubilities in water and 100-fold the solubilities in 1 x PBS buffer. The resulted solutions were measured using a UV-vis spectrophotometer for UV absorbances with the maximum absorbances. The values were subtracted by that of a blank, 1 x PBS buffer. The corrected absorbances were then used to calculate the corresponding concentrations using the formula (1) and extinction coefficients (Table 1) shown above. The individual concentrations were then used to calculate the solubilities in 1.0 mL of water and 1 x PBS buffer.
The compounds were dissolved in DMSO to either 50 mg/ml, 10 mg/ml or 5 mg/ml solutions, which were diluted to 0.5 mg/ml with DMSO. These solutions were then diluted to 5 ug/ml with 1 x PBS buffer. The resulted solutions were then measured in a UV-vis spectrophotometer for UV scanning from 240 nm to 400 nm at 25° C. The absorbance values were subtracted by that of a blank, 1 x PBS buffer containing DMSO. The total volume of the solutions was 300 uL and the path length for each well was 0.7 cm in a UV 96-well plate. The extinction coefficients of the compounds were then calculated based on molar concentrations and the corrected UV absorbances at the maximum absorption (Table 1).
The mixtures wer stirred for 1 h at room temperature, transferred to 1.5 mL Eppendorf tubes, and centrifuged for 2 min. The clear solutions were filtered through filter papers, affording clear solutions, which were centrifuged again for 2 min. The top clear solutions were diluted by 1 x PBS buffer by 10-fold for the solubilities in water and 100-fold for the solubilities in 1 x PBS buffer. The new clear solutions were then measured individually using a UV-vis spectrophotometer and a UV 96-well microplate. The absorbance values were subtracted by that of a blank, 1 x PBS buffer. Concentrations and solubilities of the compounds were then calculated using their extinct coefficients and the corrected UV absorbances at the maximum absorptions (Table 1).

Hepatic neutral lipid = assay: Neutral lipid staining (BODIPY 493/503) in iPSC-derived hepatocytes; assay type: cell-based, human; details: 72 hours; DL-1 2 μg/mL, CP-346086 20 nM
Procedure: H. Human iPSC derived hepatocytes were treated with DL-1 (2 μg/mL) and MTTP inhibitor CP-346086 (20 nM) for 72 hours. […] (A) Hepatic neutral lipid was determined by staining with 2 μM of BODIPYTM 493/503 for 15 mins and fixed with 4% PFA for microscopy. Nuclei were stained blue by DAPI. Scale bar=100 μm. […] Data are shown as mean±SEM of ten replicates (n=10); ***p<0.001.
K3 iPSC-derived hepatocytes (Day 20) were treated with or without 2 μg/mL of DL-1 or 20 nM of CP-346086 (Sigma) for 72 hours with daily medium change. At the time-point of interest, cells were treated with 2 μM of BODIPY® 493/503 staining solution (ThermoFisher) and 5 μg/mL of Hoechst 33342 (ThermoFisher) in PBS at 37 degrees for 15 minutes. Cells were washed with sterile PBS three times and then fixed with 4% PFA. Fluorescence images were taken using Bio-rad Zoeυ Fluorescent Cell Imager (Bio-Rad) and KEYENCE BZ-X800E Fluorescence Microscope (KEYENCE). Integrated fluorescent intensity was normalized by total cell counts, which is determined by DAPI staining.

[2] = tested on: intracellular APOB, LAMP1, and SORTILIN; assay: Confocal immunofluorescence of intracellular APOB, LAMP1 and SORTILIN; assay type: cell-based, human; details: 48 μg/mL, 24 hours
Procedure: Human iPSC-derived hepatocytes (iPSC-Heps) were treated with 48 μg/mL of DL-9 for 24 hours. Immunofluorescence of intracellular APOB, LAMP1, and SORTILIN was detected by specific antibodies. […] Extracellular APOB was measured by ELISA analysis. APOB level was normalized to DMSO treated group (FIG. 13C). In FIG. 13D intracellular APOB was determined via western blot using a specific anti-APOB antibody. […] Data are shown as mean±SD of triplicates (n=3). Statistical analysis was performed using the student t-test.
For hepatic marker expression analysis, human iPSC-derived hepatocytes (Day 20) were treated with 2 μg/mL of DL-1 for 24 hours. Cells were fixed in 4% paraformaldehyde (PFA) and penetrated with 0.1% Triton-X-100. Cells were incubated with primary antibodies (ALB, 1:1000, Dako; HNF4-a, 1:1000, Santa Cruz) overnight at 4 degrees and then switched to secondary antibodies (Alexa Flour 488 goat anti-rabbit, 1:1000, Invitrogen; Alexa Flour 594 rabbit anti-mouse, 1:2000, Invitrogen). Images were taken using Bio-Rad Zoe™ Fluorescent Cell Imager (Bio-Rad). For intracellular APOB localization, iPSC-heps were treated with 0, 3, 12, 48 μg/mL of DL-9 for 24 hours, and cells were fixed in 4% PFA followed by 0.1% Triton-X-100 penetration. […] Integrated fluorescent intensity was normalized by total cell counts, which is determined by DAPI staining.

Structure (SMILES)	Solubility in 1.0 ml PBS buffer [1]	Solubility in 1.0 ml water ([1]; water)	solubility comparison [1]	solubility relative to that of DL-9 in 1 x PBS buffer ([1]; 1 x PBS buffer)	solubility relative to that of DL-9 in water ([1]; water)	hepatic lipid accumulation (neutral lipid level) (Hepatic neutral lipid)	colocalization of APOB and SORTILIN [2]
Sc1nc(S)nc(Nc2cc(Cl)cc(Cl)c2)n1 (racemic) [DL-5, 6-[(3,5-dichlorophenyl)amino]-1,3,5-triazine-2,4-dithiol]	61 µg	0.27 µg					
CC(C)(C)c1cc(Nc2nc(S)nc(S)n2)cc(C(C)(C)C)c1OCCO (racemic) [DL-27, 6-(3,5-di-tert-butyl-4-(2-hydroxyethoxy)-phenylamino)-1,3,5-triazine-2,4-dithiol]	257 µg	1.78 µg	better solubilities than that for DL-9				
Oc1c(Cl)cc(Nc2nc(S)nc(S)n2)cc1Cl (racemic) [DL-28, 6-(3,5-dichloro-4-hydroxyphenylamino)-1,3,5-triazine-2,4-dithiol]	348 µg	1.25 µg	better solubilities than that for DL-9				
O=C(Nc1ccc2c(c1)CCN(Cc1ncn[nH]1)C2)c1ccccc1-c1ccc(C(F)(F)F)cc1 [CP-346086, reference compound]						significant increase of neutral lipid level	
CC(C)(C)c1cc(Nc2nc(S)nc(S)n2)cc(C(C)(C)C)c1O [DL-9, {4-[(3,5-di-tert-butyl-4-hydroxyphenyl)amino]-6-sulfanidyl-1,3,5-triazin-2-yl}sulfanide]	91 µg	0.40 µg	best solubility among the first three compounds				colocalization of APOB and SORTILIN
C#CCOCCOCCOCCOCCOc1c(C(C)(C)C)cc(Nc2nc(S)nc(S)n2)cc1C(C)(C)C [DL-33, 6-(3,5-di-tert-butyl-4-(2-(2-(2-(2-(2-propyn-1-yloxy)ethoxy)ethyoxy)etoxy)ethoxy)-phenylamino)-1,3,5-triazine-2,4-dithiol]	186 µg	1.18 µg	better solubilities than that for DL-9				

Continued, in another order:

Solubility in 1.0 ml PBS buffer [1]	Solubility in 1.0 ml water ([1]; water)	solubility comparison [1]	solubility relative to that of DL-9 in 1 x PBS buffer ([1]; 1 x PBS buffer)	solubility relative to that of DL-9 in water ([1]; water)	Structure (SMILES)	hepatic lipid accumulation (neutral lipid level) (Hepatic neutral lipid)	colocalization of APOB and SORTILIN [2]
686 µg	2.22 µg	better solubilities than that for DL-9			Cc1cc(Nc2nc(S)nc(S)n2)cc(C)c1O (racemic) [DL-29, 6-(3,5-dimethyl-4-hydroxyphenylamino)-1,3,5-triazine-2,4-dithiol]		
459 µg	1.35 µg	better solubilities than that for DL-9			CC(C)(C)c1cc(C(C)(C)C)c(Nc2nc(S)nc(S)n2)cc1O (racemic) [DL-30, 6-(2,4-di-tert-butyl-5-hydroxyphenylamino)-1,3,5-triazine-2,4-dithiol]		
477 µg	1.63 µg	better solubilities than that for DL-9	~5 fold	about 4 fold	CC(C)(C)c1cc(Nc2nc(S)nc(S)n2)c(O)c(C(C)(C)C)c1 (racemic) [DL-31, 6-(3,5-di-tert-butyl-2-hydroxyphenylamino)-1,3,5-triazine-2,4-dithiol]		
786 µg	2.01 µg	better solubilities than that for DL-9			COc1cc(Nc2nc(S)nc(S)n2)cc(OC)c1O (racemic) [DL-32]		
